Here are results for twelve molecules from PubChem BioAssay AID1259407 (Chemical Carcinogenesis Research Information System (CCRIS), 2018).

The source made the active and inactive calls. How the calls were made is not given here.

The series concerns CCRIS mutagenicity, Ames/micronucleus/aberration tests. As to the kind of experiment: CCRIS mutagenicity studies.
[1] abbreviates: Test System: AMES SALMONELLA TYPHIMURIUM, Strain/Indicator: TA98, Metabolic Activation: NONE, Method: STANDARD PLATE.
The mark [2] stands for this setting: Test System: AMES SALMONELLA TYPHIMURIUM, Strain/Indicator: TA98, Metabolic Activation: RAT, LIVER, S-9, AROCLOR 1254, Method: STANDARD PLATE.
The mark [3] stands for this setting: Test System: AMES SALMONELLA TYPHIMURIUM, Strain/Indicator: TA100, Metabolic Activation: NONE, Method: STANDARD PLATE.
Setting [4] is: Test System: AMES SALMONELLA TYPHIMURIUM, Strain/Indicator: TA100, Metabolic Activation: RAT, LIVER, S-9, AROCLOR 1254, Method: STANDARD PLATE.
The mark [5] stands for this setting: Test System: AMES SALMONELLA TYPHIMURIUM, Strain/Indicator: TA1538, Metabolic Activation: NONE, Method: STANDARD PLATE.
Where [6] appears, read: Test System: AMES SALMONELLA TYPHIMURIUM, Strain/Indicator: TA98, Metabolic Activation: NONE, Method: PREINCUBATION
Where [7] appears, read: Test System: AMES SALMONELLA TYPHIMURIUM, Strain/Indicator: TA100, Metabolic Activation: NONE, Method: PREINCUBATION
[8] abbreviates: Test System: AMES SALMONELLA TYPHIMURIUM, Strain/Indicator: TA1535, Metabolic Activation: NONE, Method: PREINCUBATION
[9] abbreviates: Test System: AMES SALMONELLA TYPHIMURIUM, Strain/Indicator: TA1537, Metabolic Activation: NONE, Method: PREINCUBATION
[10] abbreviates: Test System: AMES SALMONELLA TYPHIMURIUM, Strain/Indicator: TA100, Metabolic Activation: HAMSTER, LIVER, S-9, AROCLOR 1254 (10%), Method: PREINCUBATION
Setting [11] is: Test System: AMES SALMONELLA TYPHIMURIUM, Strain/Indicator: TA100, Metabolic Activation: RAT, LIVER, S-9, AROCLOR 1254 (10%), Method: PREINCUBATION
[12] abbreviates: Test System: AMES SALMONELLA TYPHIMURIUM, Strain/Indicator: TA1535, Metabolic Activation: HAMSTER, LIVER, S-9, AROCLOR 1254 (10%), Method: PREINCUBATION
The mark [13] stands for this setting: Test System: AMES SALMONELLA TYPHIMURIUM, Strain/Indicator: TA1535, Metabolic Activation: RAT, LIVER, S-9, AROCLOR 1254 (10%), Method: PREINCUBATION

With `O=C(O)COc1ccc(Cl)cc1`, the mutagenic call is, setting by setting: (Test System: AMES SALMONELLA TYPHIMURIUM, Strain/Indicator: TA97, Metabolic Activation: NONE, Method: STANDARD PLATE) “inactive; negative”; (Test System: AMES SALMONELLA TYPHIMURIUM, Strain/Indicator: TA97, Metabolic Activation: RAT, LIVER, S-9, AROCLOR 1254, Method: STANDARD PLATE) “inactive; negative”; under setting [1], “inactive; negative”; under setting [2], “inactive; negative”; under setting [3], “inactive; negative”; under setting [4], “inactive; negative”. Also, the mutagenic call by setting is: (Test System: AMES SALMONELLA TYPHIMURIUM, Strain/Indicator: TA102, Metabolic Activation: NONE, Method: STANDARD PLATE) “inactive; negative”; (Test System: AMES SALMONELLA TYPHIMURIUM, Strain/Indicator: TA102, Metabolic Activation: RAT, LIVER, S-9, AROCLOR 1254, Method: STANDARD PLATE) “inactive; negative”.
For `Nc1c(O)cccc1[N+](=O)[O-]`, the mutagenic call by setting is: under setting [1], “inactive; negative”; under setting [2], “inactive; negative”; under setting [3], “inactive; negative”; under setting [4], “inactive; negative”; (Test System: AMES SALMONELLA TYPHIMURIUM, Strain/Indicator: TA1535, Metabolic Activation: NONE, Method: STANDARD PLATE) “inactive; negative”; (Test System: AMES SALMONELLA TYPHIMURIUM, Strain/Indicator: TA1535, Metabolic Activation: RAT, LIVER, S-9, AROCLOR 1254, Method: STANDARD PLATE) “inactive; negative”. The mutagenic call was “inactive; negative” (Test System: AMES SALMONELLA TYPHIMURIUM, Strain/Indicator: TA1537, Metabolic Activation: NONE, Method: STANDARD PLATE); “inactive; negative” (Test System: AMES SALMONELLA TYPHIMURIUM, Strain/Indicator: TA1537, Metabolic Activation: RAT, LIVER, S-9, AROCLOR 1254, Method: STANDARD PLATE); “inactive; negative” under setting [5]; “inactive; negative” (Test System: AMES SALMONELLA TYPHIMURIUM, Strain/Indicator: TA1538, Metabolic Activation: RAT, LIVER, S-9, AROCLOR 1254, Method: STANDARD PLATE).
With `COc1cc(CNC(=O)C(C)Br)ccc1O` (stereo not drawn), the mutagenic call under setting [3] was “active; positive”.
With `CCCC(=O)OCC`, the mutagenic call by setting is: (Test System: AMES SALMONELLA TYPHIMURIUM, Strain/Indicator: TA97, Metabolic Activation: NONE, Method: PREINCUBATION) “inactive; negative”; (Test System: AMES SALMONELLA TYPHIMURIUM, Strain/Indicator: TA97, Metabolic Activation: RAT, LIVER, S-9, AROCLOR 1254, Method: PREINCUBATION) “inactive; negative”; (Test System: AMES SALMONELLA TYPHIMURIUM, Strain/Indicator: TA102, Metabolic Activation: NONE, Method: PREINCUBATION) “inactive; negative”; (Test System: AMES SALMONELLA TYPHIMURIUM, Strain/Indicator: TA102, Metabolic Activation: RAT, LIVER, S-9, AROCLOR 1254, Method: PREINCUBATION) “inactive; negative”.
Turning to `Cc1ccc2c(c1)C(C)c1cc(C)ccc1-2`, the mutagenic call by setting is: under setting [2], “inactive; negative”; under setting [4], “inactive; negative”.
Regarding `CCN1CCNC(=O)C1=O`, the mutagenic call was “inactive; negative” under setting [6]; “inactive; negative” (Test System: AMES SALMONELLA TYPHIMURIUM, Strain/Indicator: TA98, Metabolic Activation: RAT LIVER S-9, PHENOBARBITAL AND BETA-NAPHTHOFLAVONE, Method: PREINCUBATION); “inactive; negative” under setting [7]; “inactive; negative” (Test System: AMES SALMONELLA TYPHIMURIUM, Strain/Indicator: TA100, Metabolic Activation: RAT LIVER S-9, PHENOBARBITAL AND BETA-NAPHTHOFLAVONE, Method: PREINCUBATION); “inactive; negative” under setting [8]; “inactive; negative” (Test System: AMES SALMONELLA TYPHIMURIUM, Strain/Indicator: TA1535, Metabolic Activation: RAT LIVER S-9, PHENOBARBITAL AND BETA-NAPHTHOFLAVONE, Method: PREINCUBATION). For the same molecule, the mutagenic call reads like this: under setting [9], “inactive; negative”; (Test System: AMES SALMONELLA TYPHIMURIUM, Strain/Indicator: TA1537, Metabolic Activation: RAT LIVER S-9, PHENOBARBITAL AND BETA-NAPHTHOFLAVONE, Method: PREINCUBATION) “inactive; negative”; (Test System: AMES SALMONELLA TYPHIMURIUM, Strain/Indicator: TA1538, Metabolic Activation: NONE, Method: PREINCUBATION) “inactive; negative”; (Test System: AMES SALMONELLA TYPHIMURIUM, Strain/Indicator: TA1538, Metabolic Activation: RAT LIVER S-9, PHENOBARBITAL AND BETA-NAPHTHOFLAVONE, Method: PREINCUBATION) “inactive; negative”; (Test System: E.COLI, Strain/Indicator: WP2UVRA, Metabolic Activation: NONE, Method: PREINCUBATION) “inactive; negative”; (Test System: E.COLI, Strain/Indicator: WP2UVRA, Metabolic Activation: RAT LIVER S-9, PHENOBARBITAL AND BETA-NAPHTHOFLAVONE, Method: PREINCUBATION) “inactive; negative”.
As for `N#Cc1ccc(CCl)cc1`, the mutagenic call under setting [3] is “inactive; negative”.
Consider `COCC1CO1` (stereo not drawn), for which the mutagenic call was “active; positive” under setting [10]; “active; positive” under setting [7]; “active; positive” under setting [11]; “active; positive” under setting [12]; “active; positive” under setting [8]; “active; positive” under setting [13].
As for `Cc1cc2ccccc2c2cc([N+](=O)[O-])c3ccccc3c12`, the mutagenic call is “active; positive” under setting [6]; “active; positive” (Test System: AMES SALMONELLA TYPHIMURIUM, Strain/Indicator: TA98, Metabolic Activation: RAT, LIVER, S-9, Method: PREINCUBATION); “active; positive” under setting [7]; “active; positive” (Test System: AMES SALMONELLA TYPHIMURIUM, Strain/Indicator: TA100, Metabolic Activation: RAT, LIVER, S-9, Method: PREINCUBATION).
Consider `CN(C)CCN(Cc1ccsc1)c1ccccn1`, for which the mutagenic call is “inactive; negative” (Test System: AMES SALMONELLA TYPHIMURIUM, Strain/Indicator: TA98, Metabolic Activation: HAMSTER, LIVER, S-9, AROCLOR 1254 (10%), Method: PREINCUBATION); “inactive; negative” under setting [6]; “inactive; negative” (Test System: AMES SALMONELLA TYPHIMURIUM, Strain/Indicator: TA98, Metabolic Activation: RAT, LIVER, S-9, AROCLOR 1254 (10%), Method: PREINCUBATION); “inactive; negative” under setting [10]; “inactive; negative” under setting [7]; “inactive; negative” under setting [11]. Besides, the mutagenic call under setting [12] is “inactive; negative”; the mutagenic call under setting [8] was “inactive; negative”; the mutagenic call under setting [13] is “inactive; negative”; the mutagenic call (Test System: AMES SALMONELLA TYPHIMURIUM, Strain/Indicator: TA1537, Metabolic Activation: HAMSTER, LIVER, S-9, AROCLOR 1254 (10%), Method: PREINCUBATION) was “inactive; negative”; the mutagenic call under setting [9] is “inactive; negative”; the mutagenic call (Test System: AMES SALMONELLA TYPHIMURIUM, Strain/Indicator: TA1537, Metabolic Activation: RAT, LIVER, S-9, AROCLOR 1254 (10%), Method: PREINCUBATION) was “inactive; negative”.
Take `O=C(O)c1cc(Cl)ccc1O`: the mutagenic call is “inactive; negative” under setting [5] and “inactive; negative” (Test System: AMES SALMONELLA TYPHIMURIUM, Strain/Indicator: TA1538, Metabolic Activation: RAT,LIVER, S-9, AROCLOR 1254, Method: STANDARD PLATE).
On to `Cc1ccc2nc3ccccc3c(N)c2c1`, for which the mutagenic call under setting [9] was “active; positive”.
